The values that follow come from publication PMC6009979, “The role of 5-arylalkylamino- and 5-piperazino- moieties on the 7-aminopyrazolo[4,3-d]pyrimidine core in affecting adenosine A1 and A2A receptor affinity and selectivity profiles” (Journal of Enzyme Inhibition and Medicinal Chemistry, 2017).

For one experiment, the target named is T1, hA2B AR (Homo sapiens, UniProt P29275).
T1 construct: expressed in transfected cells; host or cells: CHO cells
T1 sequence (P29275 1-332): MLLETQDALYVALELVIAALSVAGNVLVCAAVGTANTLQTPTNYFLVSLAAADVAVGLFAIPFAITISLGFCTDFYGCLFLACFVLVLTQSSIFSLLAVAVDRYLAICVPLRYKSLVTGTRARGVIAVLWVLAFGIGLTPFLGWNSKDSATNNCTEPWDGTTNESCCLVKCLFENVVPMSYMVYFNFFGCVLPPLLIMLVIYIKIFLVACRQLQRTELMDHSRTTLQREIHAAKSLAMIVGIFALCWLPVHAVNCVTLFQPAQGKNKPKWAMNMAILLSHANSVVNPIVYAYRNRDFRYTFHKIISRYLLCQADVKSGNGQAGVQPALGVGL
Nature of the experiment: cAMP assay in hA2B CHO cells stimulated by 200 nM NECA. The conditions noted are these: read-out: cAMP assays I% hA2B. Format: cell-based. The procedure:
CHO cells transfected with hA2B AR subtypes were washed with phosphate-buffered saline, diluted trypsin and centrifuged for 10 min at 200 g. The cells (1 × 10^6 cells/assay) were suspended in 0.5 ml of incubation mixture (mM): NaCl 15, KCl 0.27, NaH2PO4 0.037, MgSO4 0.1, CaCl2 0.1, Hepes 0.01, MgCl2 1, glucose 0.5, pH 7.4 at 37 °C, 2 IU/ml adenosine deaminase and 4–(3-butoxy-4-methoxybenzyl)-2-imidazolidinone (Ro 20–1724) as phosphodiesterase inhibitor and preincubated for 10 min in a shaking bath at 37 °C. The potency of antagonists to the A2B AR was determined by the inhibition of NECA (200 nM)-induced cyclic AMP production. The reaction was terminated by the addition of cold 6% trichloroacetic acid (TCA). The TCA suspension was centrifuged at 2000 g for 10 min at 4 °C and the supernatant was extracted four times with water saturated diethyl ether. The final aqueous solution was tested for cyclic AMP levels by a competition protein binding assay. Samples of cyclic AMP standard (0–10 pmoles) were added to each test tube containing [^3H] cyclic AMP and incubation buffer (trizma base 0.1 M, aminophylline 8.0 mM, 2-mercaptoethanol 6.0 mM, pH 7.4). The binding protein prepared from beef adrenals was added to the samples previously incubated at 4 °C for 150 min, and, after the addition of charcoal, was centrifuged at 2000 g for 10 min. The clear supernatant was counted in a Scintillation Counter Packard Tri Carb 2810 TR with an efficiency of 58%.
(§1) The protein concentration was determined according to a Bio-Rad method[56] with bovine albumin as a standard reference. Inhibitory binding constant (Ki) values were calculated from those of IC50 according to Cheng & Prusoff equation Ki = IC50/(1 + [C*]/KD*), where [C*] is the concentration of the radioligand and KD* its dissociation constant. A weighted non-linear least-squares curve fitting program LIGAND[58] was used for computer analysis of inhibition experiments. IC50 values obtained in cyclic AMP assay were calculated by non-linear regression analysis using the equation for a sigmoid concentration–response curve (Graph-PAD Prism, San Diego, CA).
(In general: Cyclic AMP is a second messenger, typically raised through Gs and lowered through Gi signalling.)

The next experiment concerns the target T2, hA1 AR (Homo sapiens, UniProt P30542).
T2 construct: expressed in transfected cells; host or cells: CHO cells (membranes)
T2 sequence (P30542 1-326): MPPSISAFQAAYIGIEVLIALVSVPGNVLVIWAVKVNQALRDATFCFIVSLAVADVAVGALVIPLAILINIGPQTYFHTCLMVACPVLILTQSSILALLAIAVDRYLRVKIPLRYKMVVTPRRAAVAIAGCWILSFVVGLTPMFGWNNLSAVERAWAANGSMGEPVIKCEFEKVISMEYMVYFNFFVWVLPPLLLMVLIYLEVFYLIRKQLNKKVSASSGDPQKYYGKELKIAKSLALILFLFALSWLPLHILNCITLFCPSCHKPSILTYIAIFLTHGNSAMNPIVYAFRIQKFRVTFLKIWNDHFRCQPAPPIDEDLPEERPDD
Briefly: [3H]DPCPX competition binding to hA1 CHO membranes. The conditions noted are these: for Ki: mean ± SEM of four assays, read-out: Binding experiments Ki hA1; for Binding experiments I% hA1: inhibition at 1 μM.

A further experiment addresses T3, hA2A AR (Homo sapiens, UniProt P29274).
T3 construct: expressed in transfected cells; host or cells: CHO cells (membranes)
Nature of the experiment: [3H]ZM241385 competition binding to hA2A CHO membranes. The conditions noted are these: [3H]ZM241385, hA2A CHO; for Binding experiments I% hA2A: inhibition at 1 μM; for Ki: mean ± SEM of four assays, read-out: Binding experiments Ki hA2A.

For another experiment, the target named is T4, hA3 AR (Homo sapiens, UniProt P0DMS8).
T4 construct: expressed in transfected cells; host or cells: CHO cells (membranes)
T4 sequence (P0DMS8 1-318): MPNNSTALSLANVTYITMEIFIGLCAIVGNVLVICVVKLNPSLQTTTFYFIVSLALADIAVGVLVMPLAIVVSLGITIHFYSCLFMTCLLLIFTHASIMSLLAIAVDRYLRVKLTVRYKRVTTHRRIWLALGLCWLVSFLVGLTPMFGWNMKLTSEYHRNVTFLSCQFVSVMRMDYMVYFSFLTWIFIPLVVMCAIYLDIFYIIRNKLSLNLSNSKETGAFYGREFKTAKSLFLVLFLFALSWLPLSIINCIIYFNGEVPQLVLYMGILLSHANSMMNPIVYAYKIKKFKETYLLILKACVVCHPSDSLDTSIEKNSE
Nature of the experiment: [125I]AB-MECA competition binding to hA3 CHO membranes. The conditions noted are these: for inhibition / inhibition at 1 µM: inhibition at 1 μM, read-out: Binding experiments I% hA3; for Ki: mean ± SEM of four assays, read-out: Binding experiments Ki hA3. The procedure:
All synthesized compounds were tested to evaluate their affinity at human A1, A2A and A3 ARs. Displacement experiments of [^3H]DPCPX (1 nM) to hA1 CHO membranes (50 µg of protein/assay) and at least 6–8 different concentrations of antagonists for 120 min at 25 °C in 50 mM Tris-HCl buffer pH 7.4 were performed. Non-specific binding was determined in the presence 1 µM of DPCPX (≤10% of the total binding). […] Competition binding experiments to hA3 CHO membranes (50 µg of protein/assay) were performed incubating 0.5 nM [^125I]AB-MECA, 50 mM Tris-HCl buffer, 10 mM MgCl2, 1 mM EDTA, pH 7.4 and at least 6–8 different concentrations of examined ligands for 60 min at 37 °C[54]. Non-specific binding was defined as binding in the presence of 1 µM AB-MECA and was about 20% of total binding. Bound and free radioactivity were separated by filtering the assay mixture through Whatman GF/B glass fiber filters by using a Brandel cell harvester. The filter bound radioactivity was counted by Scintillation Counter Packard Tri Carb 2810 TR with an efficiency of 58%.
as §1

T3 sequence (P29274 whole entry): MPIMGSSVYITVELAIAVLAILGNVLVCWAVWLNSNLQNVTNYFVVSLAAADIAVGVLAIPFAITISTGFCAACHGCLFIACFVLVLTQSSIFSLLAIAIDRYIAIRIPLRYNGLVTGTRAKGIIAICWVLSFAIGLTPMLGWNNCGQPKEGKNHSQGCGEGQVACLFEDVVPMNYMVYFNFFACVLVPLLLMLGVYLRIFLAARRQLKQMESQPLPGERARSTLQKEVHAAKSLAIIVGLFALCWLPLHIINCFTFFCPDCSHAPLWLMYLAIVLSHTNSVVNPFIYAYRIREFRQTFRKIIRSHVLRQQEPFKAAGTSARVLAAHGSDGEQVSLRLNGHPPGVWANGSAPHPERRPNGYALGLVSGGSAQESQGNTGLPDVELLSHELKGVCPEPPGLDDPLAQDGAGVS

Regarding `Nc1nc(N2CCN(CCc3ccccc3)CC2)nc2cn(-c3ccccc3)nc12` [Compound 17, 7-Amino-5-(4-phenylethylpiperazin-1-yl)-2-phenyl-2H-pyrazolo[4,3-d]pyrimidine], the inhibition at 1 µM at hA2B AR turned out to be 1%. For the same molecule, the Ki on hA1 AR amounted to 518 ± 42 nM. Besides, on hA2A AR, the “Binding experiments I% hA2A” value came out at 40%. For the same molecule, the inhibition at hA3 AR worked out at 40%.
Regarding `Nc1nc(NCc2ccccc2)nc2cn(-c3ccccc3)nc12` [Compound 5, 7-Amino-5-benzylamino-2-phenyl-2H-pyrazolo[4,3-d]pyrimidine], the inhibition at 1 µM at hA2B AR amounted to 2%. In addition, the Ki at hA1 AR was 25 ± 3 nM; at hA2A AR it was 123 ± 11 nM; on hA3 AR, 28 ± 3 nM.
As for `Nc1nc(Nc2ccc(Cl)cc2Cl)nc2cn(-c3ccccc3)nc12` [Compound 3, 7-Amino-5–(2,4-dichlorophenyl)amino-2-phenyl-2H-pyrazolo[4,3-d]pyrimidine], the inhibition at 1 µM on hA2B AR is 2%. The “Binding experiments I% hA1” value at hA1 AR amounted to 1%. Besides, the “Binding experiments I% hA2A” value on hA2A AR amounted to 1%. The Ki at hA3 AR was 61 ± 8 nM.
For the molecule `Nc1nc(N2CCN(c3ccccc3)CC2)nc2cn(-c3ccccc3)nc12` [Compound 15, 7-Amino-2-phenyl-5-(4-phenylpiperazin-1-yl)-2H-pyrazolo[4,3-d]pyrimidine], the inhibition at 1 µM on hA2B AR was determined as 1%. Further, the Ki at hA1 AR is 647 ± 53 nM. Besides, at hA2A AR, the “Binding experiments I% hA2A” value is given as 20%. Also, at hA3 AR, the inhibition stood at 20%.
As to `Nc1nc(NCCc2ccccc2)nc2cn(-c3ccccc3)nc12` [Compound 6, 7-Amino-5-(2-phenylethyl)amino-2-phenyl-2H-pyrazolo[4,3-d]pyrimidine], the inhibition at 1 µM at hA2B AR is 1%; at hA3 AR it was 38%. Also, the Ki at hA1 AR worked out at 11.5 ± 1.2 nM. Besides, on hA2A AR, the “Binding experiments I% hA2A” value came out at 40%.
Turning to `CC(C)(C)OC(=O)N1CCN(c2nc(N)c3nn(-c4ccccc4)cc3n2)CC1` [Compound 21, Tert-butyl 4-(7-amino-2-phenyl-2H-pyrazolo[4,3-d]pyrimidin-5-yl)piperazine 1-carboxylate], the inhibition at 1 µM on hA2B AR stood at 1%. In addition, the Ki on hA1 AR was found to be 615 ± 49 nM. Also, at hA2A AR, the “Binding experiments I% hA2A” value was found to be 33%. Further, the inhibition on hA3 AR was 21%.
Taken in the same sequence, the figures for `Nc1nc(N2CCN(Cc3ccc(F)cc3Cl)CC2)nc2cn(-c3ccccc3)nc12` [Compound 19, 7-Amino-5-(4-(2-chloro-4-fluoro)benzylpiperazin-1-yl)-2-phenyl-2H-pyrazolo[4,3-d]pyrimidine] were 2%, 193 ± 17 nM, 29% and 1%.
Taken in the same sequence, the figures for `Nc1nc(N2CCN(Cc3ccco3)CC2)nc2cn(-c3ccccc3)nc12` [Compound 22] were 16%, 92 ± 8 nM, 38% and 5%.
Regarding `Nc1nc(Nc2ccc(O)cc2)nc2cn(-c3ccccc3)nc12` [Compound 4, 7-Amino-5-(4-hydroxyphenyl)amino-2-phenyl-2H-pyrazolo[4,3-d]pyrimidine], the figures for the inhibition at 1 µM on hA2B AR and on hA3 AR were 10% and 8%, respectively. Besides, the Ki at hA1 AR was 481 ± 42 nM. Moreover, on hA2A AR, the “Binding experiments I% hA2A” value is on record as 40%.
Take `Nc1nc(NCCc2ccc(O)cc2)nc2cn(-c3ccccc3)nc12` [Compound 12, 7-Amino-5-(4-hydroxyphenethyl)amino-2-phenyl-2H-pyrazolo[4,3-d]pyrimidine]: the inhibition at 1 µM on hA2B AR and at hA3 AR was 1% throughout. Further, on hA1 AR, the “Binding experiments I% hA1” value is recorded as 27%. The Ki on hA2A AR is 150 ± 14 nM.
Turning to `Nc1nc(NCCc2ccc(O)c(O)c2)nc2cn(-c3ccccc3)nc12` [Compound 14, 7-Amino-5-(3,4-dihydroxyphenethyl)amino-2-phenyl-2H-pyrazolo[4,3-d]pyrimidine], the figures for the inhibition at 1 µM at hA2B AR and on hA3 AR were 1% and 3%, respectively. Moreover, the Ki came to 71 ± 6 nM at hA1 AR and 238 ± 24 nM at hA2A AR.
Turning to `Cn1cc2nc(Nc3ccccc3)nc(N)c2n1` [Compound 8, 7-Amino-2-methyl-5-phenylamino-2H-pyrazolo[4,3-d]pyrimidine], the inhibition at 1 µM at hA2B AR and at hA3 AR was 1% each time. Besides, the “Binding experiments I% hA1” value on hA1 AR was determined as 1%. The “Binding experiments I% hA2A” value at hA2A AR is 4%.
With `COc1ccc(Nc2nc(N)c3nn(-c4ccccc4)cc3n2)cc1` [Compound 2, 7-Amino-5-(4-methoxyphenyl)amino-2-phenyl-2H-pyrazolo[4,3-d]pyrimidine], the inhibition at 1 µM at hA2B AR is 1%. Besides, the “Binding experiments I% hA1” value on hA1 AR is reported as 33%. Moreover, at hA2A AR, the “Binding experiments I% hA2A” value was 8%. The Ki at hA3 AR was determined as 27 ± 3 nM.
Take `Nc1nc(N2CCN(C(=O)Cc3ccccc3)CC2)nc2cn(-c3ccccc3)nc12` [Compound 24, 7-Amino-2-phenyl-5-(4-phenylacetylpiperazin-1-yl)-2H-pyrazolo[4,3-d]pyrimidine]: the inhibition at 1 µM at hA2B AR is 3%. Further, the Ki on hA1 AR was determined as 429 ± 36 nM. Also, the “Binding experiments I% hA2A” value on hA2A AR is on record as 3%. The inhibition on hA3 AR stood at 1%.
Take `Cn1cc2nc(NCc3ccccc3)nc(N)c2n1` [Compound 9, 7-Amino-5-benzylamino-2-methyl-2H-pyrazolo[4,3-d]pyrimidine]: the inhibition at 1 µM at hA2B AR was found to be 1%; on hA3 AR, 20%. Further, the “Binding experiments I% hA1” value on hA1 AR was determined as 9%. Moreover, the “Binding experiments I% hA2A” value at hA2A AR came to 1%.
For `COc1ccc(CCNc2nc(N)c3nn(-c4ccccc4)cc3n2)cc1` [Compound 11, 7-Amino-5-[2–(4-methoxyphenyl)ethyl]amino-2-phenyl-2H-pyrazolo[4,3-d]pyrimidine], the inhibition at 1 µM at hA2B AR was 1%; on hA3 AR, 19%. At hA1 AR, the Ki turned out to be 153 ± 11 nM. Moreover, the “Binding experiments I% hA2A” value on hA2A AR came out at 26%.

The Ki is a dissociation constant, usually derived from enzyme kinetics or from competition with a known ligand.
